The source of these data is paper PMC9259591, “Irigenin, a novel lead from Iris confusa for management of Helicobacter pylori infection with selective COX-2 and HpIMPDH inhibitory potential” (Scientific Reports, 2022).

One assay has as its target T1, human recombinant COX-2 (Homo sapiens, UniProt P35354).
T1 construct: purchased
T1 sequence (P35354 18-604): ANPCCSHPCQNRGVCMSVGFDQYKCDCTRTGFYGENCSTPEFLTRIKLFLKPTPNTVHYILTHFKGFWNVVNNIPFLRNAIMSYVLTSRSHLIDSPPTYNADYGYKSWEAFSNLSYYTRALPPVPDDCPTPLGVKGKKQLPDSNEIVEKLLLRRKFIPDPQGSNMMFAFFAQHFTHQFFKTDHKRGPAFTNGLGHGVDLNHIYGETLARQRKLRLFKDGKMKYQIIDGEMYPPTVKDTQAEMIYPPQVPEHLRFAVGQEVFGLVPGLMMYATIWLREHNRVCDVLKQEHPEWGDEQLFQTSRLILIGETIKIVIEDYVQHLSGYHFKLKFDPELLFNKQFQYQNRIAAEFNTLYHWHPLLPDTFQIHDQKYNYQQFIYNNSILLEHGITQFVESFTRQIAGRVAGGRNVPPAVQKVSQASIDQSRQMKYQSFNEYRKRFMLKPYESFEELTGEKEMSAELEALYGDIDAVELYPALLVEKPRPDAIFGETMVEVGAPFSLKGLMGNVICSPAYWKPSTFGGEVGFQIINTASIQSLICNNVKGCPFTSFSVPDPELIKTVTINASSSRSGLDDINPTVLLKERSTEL
The assay can be described thus: COX-2 inhibitory activity, colourimetric COX inhibitor screening assay kit. The assay is classed as biochemical. As to conditions: for IC50: human recombinant COX-2; for SI (COX-1/COX-2): selectivity index calculated as IC50 (COX-1)/(COX-2). How it is done:
(§1) The inhibitory COX activity was assayed colourimetrically by examining the inhibition of the ovine COX-1 and human recombinant COX-2 enzymes as described by George et al.[38], using a COX inhibitor screening assay kit. The detailed procedures were described in the supplementary file.
(§2) The inhibitory COX activity was assayed colourimetrically by examining the inhibition of the ovine COX-1 and human recombinant COX-2 enzymes as described by George et al. ^2, using a COX inhibitory screening assay kit. This assay determines the COX peroxidase activity by monitoring the appearance of N,N,N',N'-tetramethyl-p-phenylenediamine (TMPD). Assay buffer (150 μL 0.1 M Tris–HCl pH 8.0), 10 μL heme and 10μL enzyme (COX-1 or COX-2) were added in each well. Ten μL of each tested sample concentration was added to each well and incubated for 15 minutes at 37°C. After incubation, 20 μL of TMPD was added to each well. For initiating the reaction, 10 μL 10 mM arachidonic acid was added and the plates were further incubated for another 2 minutes at 37°C. For terminating the reaction, 50 μL 1 N HCl and saturated stannous chloride were added.
(§3) Reaction mixture containing assay buffer and heme acted as the blank and a mixture with either COX-1 or COX-2 assay buffer and heme acted as the 100% initial activity (IA). […] The absorbances of oxidized TMPD (blue colour) were read in ELISA plate reader at 590 nm. The % inhibition was calculated using the following formula:
(§4) COX % Inhibition= [(100%IA−Inhibitor)/ 100% IA x 100]. Where, IA: 100% initial activity.
(§5) The concentration at which the tested sample produces 50% inhibition of COX-1 and/or COX-2 (IC50) was determined. The selectivity index (SI) was calculated also as IC50 (COX-1)/ (COX-2).

The subject of a further assay is H. pylori ATCC 700392. The assay can be described thus: anti-Helicobacter pylori activity, microwell dilution method with MTT. The assay is classed as cell-based. Particulars: for MIC (H. pylori): ND = not detected; for MIC: read-out: MIC (H. pylori). How it is done: The anti-Helicobacter pylori activity of the PF and NPF as well as the isolated compounds was evaluated against H. pylori ATCC 700392 (type strain, obtained from the American Type Culture Collection unit (ATCC), using microwell dilution method and clarithromycin as standard drug[37]. The detailed procedures were described in the supplementary file.
The anti-Helicobacter pylori activity of the PF and NPF as well as the isolated compounds was evaluated against H. pylori ATCC 700392 (a type strain, obtained from the American Type Culture Collection unit (ATCC), using microwell dilution method and clarithromycin as standard drug ^1. The tested samples were prepared in dimethyl sulfoxide and successive ten twofold dilutions (125- 0.24 µg/mL) were carried out in a 96-well plate. Each microplate well included forty μL of Brain Heart Infusion growth medium and 10% fetal bovine serum (FBS), ten μL of inoculum and fifty μL of the tested sample. The plates were incubated for 3 days, in 5% oxygen, 10% carbon dioxide, 85 % nitrogen atmosphere at 37°C. Forty μL of 3- (4, 5-dimethyl-thiazol-2-yl)- 2,5-diphenyl-tetrazolium bromide (MTT) at a final concentration of 0.5 mg/mL freshly prepared in H2O was added to each well and incubated for 30 min. The bacteria were biologically active when change to purple color was observed ^1. While no change in MTT color indicated inhibition. Solvent control (DMSO) and the standard antibiotic (clarithromycin) were used as negative and positive controls, respectively. The H. pylori inhibition % was calculated using the given formula:
% Inhibition = Abs control – Abs sample × 100 /Abs control.

Another assay deals with T2, ovine COX-1 (Ovis aries, UniProt P05979).
T2 construct: purchased
T2 sequence (P05979 25-600): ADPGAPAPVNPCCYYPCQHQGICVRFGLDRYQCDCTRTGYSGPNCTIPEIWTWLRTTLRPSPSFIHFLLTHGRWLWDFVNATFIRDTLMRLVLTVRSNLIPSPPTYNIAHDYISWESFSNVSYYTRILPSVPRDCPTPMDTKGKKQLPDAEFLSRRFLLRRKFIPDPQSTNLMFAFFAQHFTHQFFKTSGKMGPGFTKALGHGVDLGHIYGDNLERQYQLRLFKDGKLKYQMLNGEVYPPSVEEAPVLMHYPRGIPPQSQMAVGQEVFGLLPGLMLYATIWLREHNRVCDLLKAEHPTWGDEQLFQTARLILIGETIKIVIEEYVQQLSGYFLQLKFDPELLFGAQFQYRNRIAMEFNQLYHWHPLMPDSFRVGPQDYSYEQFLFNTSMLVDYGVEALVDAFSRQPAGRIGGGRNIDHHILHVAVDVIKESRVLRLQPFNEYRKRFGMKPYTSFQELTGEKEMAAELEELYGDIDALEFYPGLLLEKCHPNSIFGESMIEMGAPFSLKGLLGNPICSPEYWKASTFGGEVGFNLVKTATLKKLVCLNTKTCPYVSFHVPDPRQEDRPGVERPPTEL
As to the kind of experiment: COX-1 inhibitory activity, colourimetric COX inhibitor screening assay kit. The format is biochemical. How it is done:
as §1, §2, §3, §4, §5

Assay [1] deals with RAW 264.7 macrophage cell line (NO). As to the kind of experiment: nitric oxide (NO) inhibitory activity in lipopolysaccharide-stimulated macrophages. The assay is classed as cell-based, murine. As to conditions: Mus musculus, RAW264.7, RAW 264.7 cells, 1 µg/mL lipopolysaccharide. How it is done:
The detailed procedures were described in the supplementary file.
The cell was incubated at 37 °C in 5% carbon dioxide. RAW 264.7 cells were seeded onto a 96-well plate (1×10^5 cells/well) and incubated for 24 h. […] Followed by incubation, the cells stimulated with 1µg/mL of lipopolysaccharide for another 24 h. The supernatant was gently transferred to new 96-well plates and used for NO determination. L-N 6 - (1-iminoethyl) lysine hydrochloride), is used as standard drug. The absorbance (Abs) was measured in a microplate reader at 540 nm ^3. The percentage inhibition was calculated using the following formula:
Inhibition (%) = 1-[Control-Test] Control × 100.

The mark [2] stands for this setting: concentration required for 100% inhibition, H. pylori ATCC 700392.

In brackets after ≈: the same amount, converted by molar mass. Several values for one entry are separate records, joined by “and”; a condition that tells them apart may be missing. Equal values may be shown once. Read-outs that look alike come from different tables or passages of the source.

One may read the IC50 as the concentration that inhibits the measured activity by half. For `CC(C)[C@H]1CC[C@H]2[C@@]1(C)CC[C@@]1(C)[C@@H]3CC[C@H]4C(C)(C)[C@@H](O)CC[C@]4(C)C3=CC[C@]21C` [Isoarborinol (N1), isoarborinol], the IC50 was determined as 51.8 ± 2.1 µM on human recombinant COX-2; 73.3 ± 1 µM on ovine COX-1 (ovine COX-1, read-out: IC50 (COX-1)); 44.3 ± 1.7 µM in assay [1]. Further, the “SI (COX-1/COX-2)” value at human recombinant COX-2 was 1.42. In the assay on H. pylori ATCC 700392 (setting [2]), the “MIC (H. pylori)” value is on record as “no H. pylori inhibitory potential”.

The term MIC denotes the lowest concentration that inhibits growth of the organism. As for `COc1c(O)cc2occ(-c3ccc(O)cc3)c(=O)c2c1O` [Tectorigenin (P4), 4′,5,7-trihydroxy-6-methoxyisoflavone], the 50% inhibitory concentration (IC50) was 189 µM on human recombinant COX-2 (ND = not detected), 407 µM at ovine COX-1, more than 416 µM in assay [1] and more than 125 µg/mL in assay [1] (ND = not detected). The “SI (COX-1/COX-2)” value on human recombinant COX-2 is 2.16. Besides, the MIC in the assay on H. pylori ATCC 700392 (Helicobacter pylori, ATCC700392) was 15.6 µg/mL and 52 µM; in the assay on H. pylori ATCC 700392 (setting [2]), 52.05 µM (≈ 15.6 µg/mL). In addition, in the assay with H. pylori ATCC 700392 (setting [2]), the “MIC (H. pylori)” value is 15.63 µg/mL (≈ 52.1 µM).
